Measured values: ChEMBL document CHEMBL5303304, “EUbOPEN Chemogenomics Library - IncuCyte” (2023)

Key:
Type in all cases: toxicity, cell-based
[1] = system: HEK-293T; assay: Incucyte cell viability with HEK293T; conditions: human, 10 µM, compound concentration 10 uM
[2] = system: U2OS; assay: Incucyte cell viability with U2OS; conditions: human, 10 µM, compound concentration 10 uM
[3] = system: Fibroblast; assay: Incucyte cell viability with human fibroblast; conditions: 10 µM, compound concentration 10 uM
Further: unitless GR value; below 1 slowed growth and below 0 cell loss.

SMILES	Growth Rate ([1]; 6 h, replicate number 1)	Growth Rate ([1]; 6 h, replicate number 2)	Growth Rate ([1]; 12 h, replicate number 1)	Growth Rate ([1]; 12 h, replicate number 2)	Growth Rate ([1]; 18 h, replicate number 2)	Growth Rate ([1]; 24 h, replicate number 1)	Growth Rate ([1]; 24 h, replicate number 2)	Growth Rate ([2]; 6 h, replicate number 1)	Growth Rate ([2]; 6 h, replicate number 2)	Growth Rate ([2]; 12 h, replicate number 1)	Growth Rate ([2]; 12 h, replicate number 2)	Growth Rate ([2]; 18 h, replicate number 1)	Growth Rate ([2]; 18 h, replicate number 2)	Growth Rate ([2]; 24 h, replicate number 1)	Growth Rate ([2]; 24 h, replicate number 2)	Growth Rate ([3]; 6 h, replicate number 2)	Growth Rate ([3]; 12 h, replicate number 1)	Growth Rate ([3]; 12 h, replicate number 2)	Growth Rate ([3]; 18 h, replicate number 2)	Growth Rate ([3]; 24 h, replicate number 2)	also measured
CC(C)(C)c1cnc(CSc2cnc(NC(=O)C3CCN(CC(=O)NCCOCCOCCOCCNc4cccc5c4C(=O)N(C4CCC(=O)NC4=O)C5=O)CC3)s2)o1 (stereo not given)	-0.56	-0.74	-0.47	-0.62	-0.5	-0.29	-0.39	0.29	0.25	0.31	0.19	0.16	-0.02	-0.05	-0.04	0.11	-0.04	-0.09	-0.15	-0.12	Growth Rate ([1]; 18 h, replicate number 1): -0.38; Growth Rate ([2]; 0 h, replicate number 2): 0.98; Growth Rate ([3]; 0 h, replicate number 1): -0.99; Growth Rate ([3]; 6 h, replicate number 1): 0.1; Growth Rate ([3]; 18 h, replicate number 1): -0.02; Growth Rate ([3]; 24 h, replicate number 1): 0.11
COc1cc(N2CCC(N3CCN(C)CC3)CC2)ccc1Nc1ncc(Cl)c(Nc2ccccc2S(=O)(=O)C(C)C)n1 [TAE-684]	-0.99	-0.4	-0.93	-0.16	0.06	-0.72	0.17	-0.18	0.84	-0.09	0.29	-0.06	0.27	-0.15	0.07	-0.99	-0.98	-0.28	-0.21	-0.32	Growth Rate ([1]; 18 h, replicate number 1): -0.8; Growth Rate ([2]; 0 h, replicate number 2): -0.18; Growth Rate ([3]; 6 h, replicate number 1): 0.37; Growth Rate ([3]; 18 h, replicate number 1): 0.29; Growth Rate ([3]; 24 h, replicate number 1): -0.12
Nc1ncc2c(n1)-c1c([nH]c3ccc(C4CC4)cc13)CCCC2	0.37	0.69	0.63	0.69	0.8	0.71	0.85		-0.85	0.85	0.64	0.93	0.94	1	0.88	0.5	0.76	0.75	0.79		Growth Rate ([1]; 18 h, replicate number 1): 0.74; Growth Rate ([2]; 0 h, replicate number 1): -0.99; Growth Rate ([2]; 0 h, replicate number 2): 0.47; Growth Rate ([3]; 6 h, replicate number 1): 0.08
O=C(Nc1ccnc(NC(=O)C2CC2)c1)c1c(Cl)cccc1Cl								0.46		-0.05		0.81	0.93	0.98	0.84						Growth Rate ([1]; 0 h, replicate number 1): -0.99; Growth Rate ([3]; 0 h, replicate number 1): -0.14; Growth Rate ([3]; 0 h, replicate number 2): -0.81
CC(C)C(=O)N[C@@H]1CCN(C(=O)Nc2nc3c(s2)-c2nc(-c4ccccc4Cl)ncc2CC3)C1	0.21	-0.05	0.16	-0.08	0.03	0.37	0.15			0.94	0.9	0.91	0.77	0.88	0.69						Growth Rate ([1]; 18 h, replicate number 1): 0.29; Growth Rate ([3]; 0 h, replicate number 1): -0.95
Cc1noc(C)c1-c1cnc2c(-c3ccc(C(=O)O)cc3)cn([C@@H](C)c3ccccn3)c2c1 [PLX-51107]				0.89	0.62	0.93	0.48	0.16		0.94				0.93	1	-0.59	-0.99	0.35	0.36	0.49	Growth Rate ([1]; 0 h, replicate number 1): 0.25; Growth Rate ([2]; 0 h, replicate number 1): -0.72; Growth Rate ([2]; 0 h, replicate number 2): -0.91; Growth Rate ([3]; 0 h, replicate number 1): -0.53; Growth Rate ([3]; 0 h, replicate number 2): -0.82; Growth Rate ([3]; 18 h, replicate number 1): -0.39; Growth Rate ([3]; 24 h, replicate number 1): -0.1
O=S(=O)(Nc1nnc2cc(OCC34CC5CC(CC(C5)C3)C4)c(C3CC3)cn12)C1CC1	0.8								0.37	0.94	0.76		0.91	0.94	0.89	-1	-1	0.16	0.43	0.63	Growth Rate ([1]; 0 h, replicate number 1): 0.55; Growth Rate ([1]; 0 h, replicate number 2): 0.41; Growth Rate ([3]; 6 h, replicate number 1): 0.92; Growth Rate ([3]; 18 h, replicate number 1): 0.51
CCn1c(CNC(=O)c2nc(Cl)cnc2N)[n+](CC)c2ccc(C(=O)N(C)CCN(C)C)cc21.[Cl-]		0.55		0.57	0.77		0.84	0.28	0.97	0.84				0.84		-0.24		0.59	0.7	0.96	Growth Rate ([1]; 0 h, replicate number 1): 0.65; Growth Rate ([1]; 0 h, replicate number 2): 0.44; Growth Rate ([2]; 0 h, replicate number 1): 0.81; Growth Rate ([3]; 0 h, replicate number 2): -0.38
O=C(Nc1cccc(Nc2nccc(Nc3cccc(C(F)(F)F)c3)n2)c1)C1CC1 [ANILINOPYRIMIDINE1]	-0.91	-0.97	-0.71	-0.79	-0.54	-0.29	-0.38	-0.16	-0.36	-0.21	-0.42	-0.21	-0.3	-0.08	-0.1	-1	-0.84	-0.73		-0.55	Growth Rate ([1]; 18 h, replicate number 1): -0.46; Growth Rate ([2]; 0 h, replicate number 1): -0.01; Growth Rate ([2]; 0 h, replicate number 2): 0.91; Growth Rate ([3]; 0 h, replicate number 1): -1; Growth Rate ([3]; 6 h, replicate number 1): -0.79; Growth Rate ([3]; 18 h, replicate number 1): -0.68; Growth Rate ([3]; 24 h, replicate number 1): -0.48
